# Measurements taken from patent US9624214B2, “Amino-substituted imidazo[1,2-a]pyridinecarboxamides and their use” (BAYER PHARMA AKTIENGESELLSCHAFT, priority 2012, dated 2017).
# Counter-ions that a name gives are not always drawn.
# Target: T1, recombinant guanylate cyclase reporter cell line (Rattus norvegicus, UniProt P19686+P20595)
# T1 construct: expressed in transfected cells
# T1 sequence (P20595 1-619): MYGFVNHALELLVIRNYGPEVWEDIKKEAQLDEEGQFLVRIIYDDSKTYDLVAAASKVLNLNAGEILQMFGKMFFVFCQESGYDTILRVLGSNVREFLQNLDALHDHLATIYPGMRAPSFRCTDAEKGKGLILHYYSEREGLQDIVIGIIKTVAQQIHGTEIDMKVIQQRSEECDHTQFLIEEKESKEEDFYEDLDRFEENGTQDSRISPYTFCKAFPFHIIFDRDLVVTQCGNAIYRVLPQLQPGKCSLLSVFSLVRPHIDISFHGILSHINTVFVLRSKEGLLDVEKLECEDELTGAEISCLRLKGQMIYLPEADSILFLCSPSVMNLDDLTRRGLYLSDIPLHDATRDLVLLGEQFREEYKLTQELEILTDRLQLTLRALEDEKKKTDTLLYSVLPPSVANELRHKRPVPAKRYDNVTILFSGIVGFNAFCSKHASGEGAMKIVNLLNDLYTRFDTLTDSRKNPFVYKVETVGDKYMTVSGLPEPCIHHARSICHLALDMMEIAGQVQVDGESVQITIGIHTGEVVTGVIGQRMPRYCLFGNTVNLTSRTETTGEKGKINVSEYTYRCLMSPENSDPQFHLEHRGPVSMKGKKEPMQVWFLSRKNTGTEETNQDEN
# T1 sequence (P19686 1-690): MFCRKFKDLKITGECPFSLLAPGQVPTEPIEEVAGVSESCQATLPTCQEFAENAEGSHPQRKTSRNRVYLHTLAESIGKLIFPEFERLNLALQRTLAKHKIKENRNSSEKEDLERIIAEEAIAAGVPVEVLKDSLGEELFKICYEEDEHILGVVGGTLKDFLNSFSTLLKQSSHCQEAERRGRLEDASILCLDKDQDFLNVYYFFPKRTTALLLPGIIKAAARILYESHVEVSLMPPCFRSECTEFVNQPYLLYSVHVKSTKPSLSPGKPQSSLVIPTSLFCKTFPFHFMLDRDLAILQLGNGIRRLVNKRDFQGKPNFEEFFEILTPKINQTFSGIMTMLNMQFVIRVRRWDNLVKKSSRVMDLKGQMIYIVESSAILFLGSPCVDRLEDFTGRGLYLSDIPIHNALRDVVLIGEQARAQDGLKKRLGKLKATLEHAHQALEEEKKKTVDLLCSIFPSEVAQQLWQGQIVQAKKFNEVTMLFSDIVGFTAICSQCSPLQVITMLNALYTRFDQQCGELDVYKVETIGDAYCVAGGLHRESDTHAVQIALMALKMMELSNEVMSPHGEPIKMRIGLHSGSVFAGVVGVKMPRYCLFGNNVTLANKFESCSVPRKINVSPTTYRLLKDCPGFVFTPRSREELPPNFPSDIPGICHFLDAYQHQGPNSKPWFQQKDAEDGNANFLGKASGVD
# Assay: B-2. Action on recombinant guanylate cyclase reporter cell line
# Assay type: cell-based
# Conditions: MEC = minimal effective concentration; in some cases mean values from individual determinations
# Protocol: B-2. Action on Recombinant Guanylate Cyclase Reporter Cell Line
# The cellular action of the compounds according to the invention is determined on a recombinant guanylate cyclase reporter cell line, as described in F. Wunder et al., Anal. Biochem. 339, 104-112 (2005).
# Representative MEC values (MEC=minimal effective concentration) for the compounds according to the invention are shown in the following table (in some cases as mean values obtained from individual determinations): […]
row,MEC [µM],SMILES
1,0.3,"Cc1cc(OCc2c(F)ccc(F)c2F)c2nc(C)c(C(=O)NCC(C)(N)CF)n2c1 (single isomer, unassigned; enantiomer a) [Example 285, ent-N-(2-amino-3-fluoro-2-methylpropyl)-2,6-dimethyl-8-[(2,3,6-trifluorobenzyl)oxy]imidazo[1,2-a]pyridine-3-carboxamide (Enantiomer A)]"
2,0.30,"CCCC(C)(N)CNC(=O)c1c(C)nc2c(OCc3c(F)cccc3F)cc(Cl)cn12 (racemic) [Example 244, rac-N-(2-Amino-2-methylpentyl)-6-chloro-8-[(2,6-difluorobenzyl)oxy]-2-methylimidazo[1,2-a]-pyridine-3-carboxamide]"
3,1.00,"Cc1cc(OCc2c(F)ccc(C3CC3)c2F)c2nc(C)c(C(=O)NCC(C)(N)CF)n2c1 (stereo not drawn) [Example 362, N-(2-amino-3-fluoro-2-methylpropyl)-8-[(3-cyclopropyl-2,6-difluorobenzyl)oxy]-2,6-dimethylimidazo[1,2-a]pyridine-3-carboxamide]"
4,0.30,"CCC(C)(N)CNC(=O)c1c(C)nc2c(OCc3c(F)cccc3F)cc(CF)cn12 (stereo not drawn) [Example 404, ent-N-(2-amino-2-methylbutyl)-8-[(2,6-difluorobenzyl)oxy]-6-(fluoromethyl)-2-methylimidazo[1,2-a]pyridine-3-carboxamide]"
5,1.00,"Cc1cc(OCc2c(F)cccc2F)c2nc(C)c(C(=O)NCC3CN(Cc4ccccc4)CCO3)n2c1 (racemic) [Example 344, rac-N-[(4-benzylmorpholin-2-yl)methyl]-8-[(2,6-difluorobenzyl)oxy]-2,6-dimethylimidazo[1,2-a]pyridine-3-carboxamide]"
6,1.00,"C=Cc1cccc(C(CN)NC(=O)c2c(C)nc3c(OCc4c(F)cccc4F)cc(C)cn23)c1 (racemic) [Example 385, rac-N-[2-amino-1-(3-ethenylphenyl)ethyl]-8-[(2,6-difluorobenzyl)oxy]-2,6-dimethylimidazo[1,2-a]pyridine-3-carboxamide]"
7,0.30,"Cc1cc(OCc2c(F)cccc2F)c2nc(C)c(C(=O)NC3CC3N)n2c1 (racemic) [Example 330, rac-N-(2-aminocyclopropyl)-8-[(2,6-difluorobenzyl)oxy]-2,6-dimethylimidazo[1,2-a]pyridine-3-carboxamide]"
8,1.00,"Cc1cc(OCc2c(F)cccc2F)c2nc(C)c(C(=O)NCC(N)c3cc(F)c(F)c(F)c3)n2c1 (racemic) [Example 374, rac-N-[2-amino-2-(3,4,5-trifluorophenyl)ethyl]-8-[(2,6-difluorobenzyl)oxy]-2,6-dimethylimidazo[1,2-a]pyridine-3-carboxamide]"
9,0.10,"CCCC(C)(N)CNC(=O)c1c(CC)nc2c(OCc3c(F)cccc3F)cc(C)cn12 (stereo not drawn) [Example 338, ent-N-(2-amino-2-methylpentyl)-8-[(2,6-difluorobenzyl)oxy]-2-ethyl-6-methylimidazo[1,2-a]pyridine-3-carboxamide]"
10,0.3,"CCCC(C)(N)CNC(=O)c1c(C)nc2c(OCc3c(F)cccc3F)cc(C(F)F)cn12 (single isomer, unassigned; enantiomer b) [Example 289, ent-N-(2-amino-2-methylpentyl)-8-[(2,6-difluorobenzyl)oxy]-6-(difluoromethyl)-2-methylimidazo[1,2-a]pyridine-3-carboxamide Formate (Enantiomer B)]"
11,0.10,"Cc1cc(OCc2c(F)cccc2F)c2nc(C)c(C(=O)NCC(C)(N)CCOCc3ccccc3)n2c1 (racemic) [Example 262, rac-N-[2-Amino-4-(benzyloxy)-2-methylbutyl]-8-[(2,6-difluorobenzyl)oxy]-2,6-dimethylimidazo-[1,2-a]pyridine-3-carboxamide]"

# The next lines start with the compound.
row,SMILES,MEC [µM]
1,"Cc1cc(OCc2c(F)cccc2F)c2nc(C)c(C(=O)NCC(N)COC(C)C)n2c1 (racemic) [Example 206, rac-N-(2-Amino-3-isopropoxypropyl)-8-[(2,6-difluorobenzyl)oxy]-2,6-dimethylimidazo[1,2-a]-pyridine-3-carboxamide]",0.30
2,"COCC(C)(N)CNC(=O)c1c(C)nc2c(OCc3c(F)cccc3F)cccn12 (single isomer, unassigned) [Example 215, ent-N-(2-Amino-3-methoxy-2-methylpropyl)-8-[(2,6-difluorobenzyl)oxy]-2-methylimidazo[1,2-a]-pyridine-3-carboxamide]",1.00
3,"Cc1nc2c(OCc3c(F)cccc3F)cccn2c1C(=O)N[C@@H](C)CN1CCOCC1 [Example 171, 8-[(2,6-difluorobenzyl)oxy]-2-methyl-N-[(2S)-1-(morpholin-4-yl)propan-2-yl]imidazo[1,2-a]-pyridine-3-carboxamide]",1.00
4,"Cc1cc(OCc2c(F)cccc2F)c2nc(C)c(C(=O)NCC(C)(N)C(F)(F)F)n2c1 (single isomer, unassigned) [Example 241, ent-N-(2-Amino-3,3,3-trifluoro-2-methylpropyl)-8-[(2,6-difluorobenzyl)oxy]-2,6-dimethylimidazo-[1,2-a]pyridine-3-carboxamide]",0.30
5,"Cc1nc2c(OCc3c(F)cccc3F)cccn2c1C(=O)NCC(C)N1CCOCC1 (racemic) [Example 132, rac-8-[(2,6-difluorobenzyl)oxy]-2-methyl-N-[2-(morpholin-4-yl)propyl]imidazo[1,2-a]pyridine-3-carboxamide]",1.00
6,"Cc1cc(OCc2c(F)cccc2F)c2nc(C)c(C(=O)NCC(C)N3CCOCC3)n2c1 (racemic) [Example 138, rac-8-[(2,6-difluorobenzyl)oxy]-2,6-dimethyl-N-[2-(morpholin-4-yl)propyl]imidazo[1,2-a]-pyridine-3-carboxamide]",0.30
7,"Cc1cc(OCc2c(F)cccc2F)c2nc(C)c(C(=O)NCCN3CCC(F)(F)CC3)n2c1 [Example 163, 8-[(2,6-difluorobenzyl)oxy]-N-[2-(4,4-difluoro-piperidin-1-yl)ethyl]-2,6-dimethylimidazo[1,2-a]pyridine-3-carboxamide]",0.30
8,"Cc1nc2c(OCc3c(F)cccc3F)cccn2c1C(=O)NC(C)CN (racemic) [Example 17, rac-N-(1-aminopropan-2-yl)-8-[(2,6-difluorobenzyl)oxy]-2-methylimidazo[1,2-a]-pyridine-3-carboxamide dihydrochloride]",1.00
9,"Cc1nc2c(OCC3CCCCC3)cccn2c1C(=O)NC(CN)c1ccc(F)c(F)c1 (racemic) [Example 46, rac-N-[2-Amino-1-(3,4-difluorophenyl)ethyl]-8-(cyclohexylmethoxy)-2-methylimidazo[1,2-a]-pyridine-3-carboxamide]",1.00
10,"COCC(N)CNC(=O)c1c(C)nc2c(OCc3c(F)cccc3F)cc(C)cn12 (single isomer, unassigned) [Example 243, ent-N-(2-Amino-3-methoxypropyl)-8-[(2,6-difluorobenzyl)oxy]-2,6-dimethylimidazo[1,2-a]-pyridine-3-carboxamide]",1.00
11,"Cc1cc(OCc2c(F)cccc2F)c2nc(C)c(C(=O)NCCC(C)(C)N)n2c1 [Example 114, N-(3-amino-3-methylbutyl)-8-[(2,6-difluorobenzyl)oxy]-2,6-dimethylimidazo[1,2-a]-pyridine-3-carboxamide]",0.30
12,"Cc1nc2c(OCc3c(F)cccc3F)cc(Cl)cn2c1C(=O)NCC(C)N (single isomer, unassigned; enantiomer a) [Example 29, ent-N-(2-Aminopropyl)-6-chloro-8-[(2,6-difluorobenzyl)oxy]-2-methylimidazo[1,2-a]pyridine-3-carboxamide (Enantiomer A)]",0.20
13,"Cc1cc(OCc2c(F)cccc2F)c2nc(C)c(C(=O)NCC3(N)COC3)n2c1 [Example 216, N-[(3-Aminooxetan-3-yl)methyl]-8-[(2,6-difluorobenzyl)oxy]-2,6-dimethylimidazo[1,2-a]pyridine-3-carboxamide]",1.00
